pEC50, pIC50, pKi: −log10 of the molar value. Where two headings read alike, the source gives them in different places.
What was measured:
p110α [1] = system: p110α; parameters: method as in S-inhibitor catalog; settings: vendor brief description; ref S-inhibitor catalog; cited from earlier work
[2] = system: Toxoplasma gondii RH-2F tachyzoites; experiment: microbe, parasite or virus in culture; settings: 72 h
Syk = system: Syk; parameters: method as in S-inhibitor catalog; settings: vendor brief description; ref S-inhibitor catalog; cited from earlier work
glucokinase (GK) = target: glucokinase (GK); parameters: method as in S-inhibitor; settings: ref S-inhibitor; read-out: EC50, glucokinase activation; cited from earlier work
EphB4 = system: EphB4; parameters: method as in S-inhibitor; settings: ref S-inhibitor; cited from earlier work
Abl = system: Abl; parameters: method as in S-inhibitor; settings: ref S-inhibitor; read-out: IC50, c-Abl; cited from earlier work
Src = system: Src; parameters: method as in S-inhibitor; settings: ref S-inhibitor; cited from earlier work
VEGFR2 [3] = system: VEGFR2; parameters: method as in S-inhibitor; settings: ref S-inhibitor; cited from earlier work
c-Raf = system: c-Raf; parameters: method as in S-inhibitor; settings: ref S-inhibitor; cited from earlier work
mTORC2 = system: mTORC2; parameters: method as in S-inhibitor catalog; settings: vendor brief description; ref S-inhibitor catalog; cited from earlier work
mTORC1 = system: mTORC1; parameters: method as in S-inhibitor catalog; settings: vendor brief description; ref S-inhibitor catalog; cited from earlier work
Plk1 = system: Plk1; parameters: method as in S-inhibitor catalog; settings: vendor brief description; ref S-inhibitor catalog; cited from earlier work
hERG K+ channel = settings: cited from earlier work
P388 = system: P388; parameters: method as in S-inhibitor; settings: ref S-inhibitor; read-out: IC50, P388 cell line; cited from earlier work
SKOV3 = system: SKOV3; parameters: method as in S-inhibitor; settings: ref S-inhibitor; read-out: IC50, SKOV3 cell line; cited from earlier work
Colo205 = system: Colo205; parameters: method as in S-inhibitor; settings: ref S-inhibitor; read-out: IC50, Colo205 cell line; cited from earlier work
MV522 = system: MV522; parameters: method as in S-inhibitor; settings: ref S-inhibitor; read-out: IC50, MV522 cell line; cited from earlier work
MX1 = system: MX1; parameters: method as in S-inhibitor; settings: ref S-inhibitor; read-out: IC50, MX1 cell line; cited from earlier work
V617F mutant JAK2 = system: V617F mutant JAK2; parameters: method as in S-inhibitor; settings: in Ba/F3 cells; ref S-inhibitor; cited from earlier work
Bcr/Abl = system: Bcr/Abl; parameters: method as in S-inhibitor catalog; settings: vendor brief description; ref S-inhibitor catalog; cited from earlier work
H14 cell line = system: H14 cell line; parameters: method as in S-inhibitor catalog; settings: vendor brief description; ref S-inhibitor catalog; read-out: IC50, inhibition of growth of H14; cited from earlier work
MDA-MB-435 cell line = system: MDA-MB-435 cell line; parameters: method as in S-inhibitor catalog; settings: vendor brief description; ref S-inhibitor catalog; read-out: IC50, inhibition of growth of MDA-MB-435; cited from earlier work
HeLa cell line = system: HeLa cell line; parameters: method as in S-inhibitor catalog; settings: vendor brief description; ref S-inhibitor catalog; read-out: IC50, inhibition of growth of HeLa; cited from earlier work
HL60 cell line = system: HL60 cell line; parameters: method as in S-inhibitor catalog; settings: vendor brief description; ref S-inhibitor catalog; read-out: IC50, inhibition of growth of HL60; cited from earlier work
VEGFR2 [4] = system: VEGFR2; parameters: method as in S-inhibitor catalog; settings: vendor brief description; ref S-inhibitor catalog; cited from earlier work
PDGFRβ = system: PDGFRβ; parameters: method as in S-inhibitor catalog; settings: vendor brief description; ref S-inhibitor catalog; cited from earlier work
VEGFR3 = system: VEGFR3; parameters: method as in S-inhibitor catalog; settings: vendor brief description; ref S-inhibitor catalog; cited from earlier work
c-Kit = system: c-Kit; parameters: method as in S-inhibitor catalog; settings: vendor brief description; ref S-inhibitor catalog; cited from earlier work
bFGF = system: bFGF; parameters: method as in S-inhibitor catalog; settings: vendor brief description; ref S-inhibitor catalog; cited from earlier work
VEGF-A = system: VEGF-A; parameters: method as in S-inhibitor catalog; settings: vendor brief description; ref S-inhibitor catalog; cited from earlier work
p110β = system: p110β; parameters: method as in S-inhibitor; settings: ref S-inhibitor; cited from earlier work
p110γ = system: p110γ; parameters: method as in S-inhibitor; settings: ref S-inhibitor; cited from earlier work
p110α [5] = system: p110α; parameters: method as in S-inhibitor; settings: ref S-inhibitor; cited from earlier work
p110δ = system: p110δ; parameters: method as in S-inhibitor; settings: ref S-inhibitor; cited from earlier work
PDE4B = system: PDE4B; parameters: method as in S-inhibitor catalog; settings: vendor brief description; ref S-inhibitor catalog; cited from earlier work
[6] = system: AVP-induced platelet aggregation; parameters: method as in S-inhibitor catalog; settings: vendor brief description; ref S-inhibitor catalog; read-out: IC50, inhibition of AVP-induced platelet aggregation; cited from earlier work
ErbB3 = system: ErbB3; parameters: method as in S-inhibitor; settings: ref S-inhibitor; cited from earlier work
HER2/ErbB2 = system: HER2/ErbB2; parameters: method as in S-inhibitor; settings: ref S-inhibitor; cited from earlier work
PARP1 = target: PARP1; parameters: method as in S-inhibitor; settings: ref S-inhibitor; cited from earlier work
FGFR3 = system: FGFR3; parameters: method as in S-inhibitor; settings: ref S-inhibitor; cited from earlier work
FGFR1 = system: FGFR1; parameters: method as in S-inhibitor; settings: ref S-inhibitor; cited from earlier work
EGFR = system: EGFR; parameters: method as in S-inhibitor; settings: ref S-inhibitor; cited from earlier work
ErbB4 = system: ErbB4; parameters: method as in S-inhibitor; settings: ref S-inhibitor; cited from earlier work
ALK3 = system: ALK3; parameters: method as in S-inhibitor catalog; settings: vendor brief description; ref S-inhibitor catalog; cited from earlier work
ALK2 = system: ALK2; parameters: method as in S-inhibitor catalog; settings: vendor brief description; ref S-inhibitor catalog; cited from earlier work
ALK5 = settings: read-out: IC50, ALK5; ref S-inhibitor; cited from earlier work
ALK4 = system: ALK4; parameters: method as in S-inhibitor; settings: ref S-inhibitor; cited from earlier work
[7] = read-out: Parasite inhibition (%) mean, preliminary screen of compound library, mean
[8] = read-out: Parasite inhibition (%) mean, preliminary screen, mean

Nc1cc(C(F)(F)F)c(-c2cc(N3CCOCC3)nc(N3CCOCC3)n2)cn1 [BKM120 (NVP-BKM120)]
inhibition of growth at 5 µM [2, 7]: 41.3%

COc1cc(Nc2ncc(F)c(Nc3ccc4c(n3)N(COP(=O)(O)O)C(=O)C(C)(C)O4)n2)cc(OC)c1OC [R788 (Fostamatinib)]
inhibition of growth at 5 µM [2, 7]: 27.4%

O=C(Nc1ncc(SCCN2CCCC2)s1)[C@]1(c2ccc(S(=O)(=O)C3CC3)cc2)C[C@@H]1C1CCCCC1 [LY2608204]
inhibition of growth at 5 µM ([2]; read-out: Parasite inhibition (%) mean): -25.9%
pEC50 (glucokinase (GK)): 7.38

Cc1ccc(C(=O)Nc2cccc(C(F)(F)F)c2)cc1Nc1nc(-c2cccnc2)nc2c1cnn2C [NVP-BHG712]
ED50, EphB4 (EphB4): 25 nM
inhibition of growth at 5 µM [2, 8]: -3.3%
pIC50 (Abl): 5.78
pIC50 (Src): 5.90
ED50, VEGFR2 (VEGFR2 [3]): 4.2 µM
pIC50 (c-Raf): 6.40

COc1cccc2cc(-c3nc([C@H]4CC[C@H](C(=O)O)CC4)n4ncnc(N)c34)[nH]c12 [OSI-027]
pIC50 (mTORC2): 7.19
pIC50 (mTORC1): 7.66
inhibition of growth at 5 µM [2, 7]: 31%

CC[C@@H]1C(=O)N(C)c2cnc(Nc3ccc(C(=O)N[C@H]4CC[C@H](N5CCN(CC6CC6)CC5)CC4)cc3OC)nc2N1C(C)C [BI6727 (Volasertib)]
pIC50 (Plk1): 9.06
inhibition of growth at 5 µM [2, 7]: 0.8%

CC1=NN(c2ccc(C)c(C)c2)C(=O)/C1=N/Nc1cccc(-c2cccc(C(=O)O)c2)c1O [Eltrombopag (SB-497115-GR)]
inhibition of growth at 5 µM [2, 7]: 0.7%
pIC50 (hERG K+ channel): 6.16

Cc1ccc(C(=O)N(CCCN)[C@@H](c2oc3cc(Cl)ccc3c(=O)c2Cc2ccccc2)C(C)C)cc1 [SB 743921]
pIC50 (P388): 7.84
inhibition of growth at 5 µM [2, 8]: 0.5%
pIC50 (SKOV3): 9.70
pIC50 (Colo205): 10.15
pIC50 (MV522): 8.77
pIC50 (MX1): 10.22

Cc1cc(Nc2cc(CN3CCOCC3)c3nc(C)c(Cc4ccc(Cl)cc4F)n3n2)n[nH]1 [LY2784544]
inhibition of growth at 5 µM [2, 8]: 11.1%
pIC50 (V617F mutant JAK2): 7.26

CCC[C@H](NC(=O)/C(C#N)=C/c1cccc(Br)n1)c1ccccc1 [WP1130]
pIC50 (Bcr/Abl): 5.74
inhibition of growth at 5 µM [2, 7]: 1.7%

C[C@@H]1CC[C@@]2(OC1)O[C@H]1C[C@H]3[C@@H]4CC=C5C[C@H](O[C@@H]6O[C@@H](CO)[C@@H](O[C@@H]7O[C@@H](C)[C@H](O)[C@@H](O)[C@@H]7O)[C@H](O)[C@H]6O[C@@H]6O[C@@H](C)[C@H](O)[C@@H](O)[C@H]6O)CC[C@]5(C)[C@@H]4CC[C@]3(C)[C@@H]1[C@H]2C [Dioscin (Collettiside III)]
pIC50 (H14 cell line): 6.10
pIC50 (MDA-MB-435 cell line): 5.59
inhibition of growth at 5 µM [2, 7]: 4.8%
pIC50 (HeLa cell line): 5.35
pIC50 (HL60 cell line): 5.12

CNC(=O)c1cc(COc2nnc(Nc3ccc(Cl)cc3)c3ccoc23)ccn1 [Telatinib (BAY 57-9352)]
pIC50 (VEGFR2 [4]): 8.22
pIC50 (PDGFRβ): 7.82
inhibition of growth at 5 µM [2, 7]: -15.6%
pIC50 (VEGFR3): 8.40
pIC50 (c-Kit): 9.00

COc1ccc(COc2cc3oc(=O)c4cc(C(C)O)ccc4c3cc2OC)cc1 (centres unmarked) [Palomid 529]
inhibition of growth at 5 µM [2, 7]: -14.6%
pIC50 (bFGF): 7.52
pIC50 (VEGF-A): 8.00

Cc1ccccc1-n1c(Cn2ncc3c(N)ncnc32)nc2cccc(C)c2c1=O [PIK-293]
inhibition of growth at 5 µM [2, 8]: 1.1%
pIC50 (p110β): 4.60
pIC50 (p110γ): 5.00
pIC50 (p110α [5]): 4.00
pIC50 (p110δ): 6.62

COc1cccc(Nc2c(C(N)=O)cnc3c(C)cc(S(=O)(=O)c4cccc(C(=O)N(C)C)c4)cc23)c1 [GSK256066]
pIC50 (PDE4B): 11.49
inhibition of growth at 5 µM [2, 7]: 18.7%

Cc1ccccc1C(=O)Nc1ccc(C(=O)N2CCCC(O)c3cc(Cl)ccc32)c(C)c1 (centres unmarked) [Tolvaptan (OPC-41061)]
inhibition of growth at 5 µM [2, 7]: -4.3%
pIC50 [6]: 5.89

CNC(=O)CN1CCC(Oc2cc3c(Nc4cccc(Cl)c4F)ncnc3cc2OC)CC1 [AZD8931]
pIC50 (ErbB3): 8.40
inhibition of growth at 5 µM [2, 8]: -20%
pIC50 (HER2/ErbB2): 8.52

CN(C)Cc1ccc(-c2nc3cccc4c3n2CCNC4=O)cc1 [AG14361]
pKi (PARP1): > 8.30
inhibition of growth at 5 µM [2, 8]: 28.9%

CCN1CCN(c2ccc(Nc3cc(N(C)C(=O)Nc4c(Cl)c(OC)cc(OC)c4Cl)ncn3)cc2)CC1 [BGJ398 (NVP-BGJ398)]
inhibition of growth at 5 µM [2, 8]: -8.9%
pIC50 (FGFR3): 9.00
pIC50 (FGFR1): 9.05

C=CC(=O)Nc1ccc2ncnc(Nc3ccc(OCc4cccc(F)c4)c(Cl)c3)c2c1 [AST-1306]
pIC50 (EGFR): 9.30
inhibition of growth at 5 µM [2, 8]: -33.7%
pIC50 (ErbB4): 9.10

c1ccc2c(-c3cnn4cc(-c5ccc(N6CCNCC6)cc5)cnc34)ccnc2c1 [LDN193189]
inhibition of growth at 5 µM [2, 7]: 21.7%

Cc1cccc(-c2[nH]c(C(C)(C)C)nc2-c2ccc3c(c2)OCO3)n1 [SB-505124]
pIC50 (ALK5): 7.33
inhibition of growth at 5 µM [2, 8]: -14.8%
pIC50 (ALK4): 6.89
